# Results reported in BindingDB's records for doi:10.1016/0014-2999(96)00428-1 (Glaxo Research & Development, 1996).
# “And” between values parts separate entries of the source, which are not always exact repeats. Equal entries are not always repeated.
# Biological target: Hrh3 protein (Rattus norvegicus, UniProt Q5PPG3)
# Sequence (Q5PPG3 whole entry): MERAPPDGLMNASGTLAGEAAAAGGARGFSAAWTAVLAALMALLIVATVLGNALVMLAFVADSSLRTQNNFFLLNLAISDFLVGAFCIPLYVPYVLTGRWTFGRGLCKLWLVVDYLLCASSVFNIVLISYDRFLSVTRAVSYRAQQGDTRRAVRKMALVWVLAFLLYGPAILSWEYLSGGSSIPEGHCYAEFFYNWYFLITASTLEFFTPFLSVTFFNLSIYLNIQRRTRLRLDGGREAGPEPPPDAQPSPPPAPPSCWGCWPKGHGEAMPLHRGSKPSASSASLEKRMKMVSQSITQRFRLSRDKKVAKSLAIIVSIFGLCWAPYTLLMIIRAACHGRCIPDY
row,Ki,Structure (SMILES)
1,7940 nM and > 10000 nM,COc1ccc(CN(CCN(C)C)c2ccccn2)cc1
2,63.1 nM,CNC(=S)NCCCCc1cnc[nH]1 [1-[4-(1H-imidazol-5-yl)butyl]-3-methylthiourea]
3,19.9 nM and 12.6 nM,Cc1[nH]cnc1CSCCNC(=N)NCCCc1c[nH]cn1 [2-[3-(1H-imidazol-5-yl)propyl]-1-(2-{[(5-methyl-1H-imidazol-4-yl)methyl]sulfanyl}ethyl)guanidine]

row,Structure (SMILES),Ki
1,CN/C([CH-][N+](=O)[O-])=[NH+]\CCSCc1ccc(CN(C)C)o1,5010 nM and > 10000 nM
2,NC(=NC1CCCCC1)N1CCC(c2cnc[nH]2)CC1 [GR-168320],0.15 nM and 0.19 nM
